Data published in patent EP1095025B1, “BENZIMIDAZOLES, PRODUCTION THEREOF AND USE THEREOF AS MEDICAMENTS” (Boehringer Ingelheim Pharma KG, priority 1998, dated 2000).
Structures can show the parent of a compound that is named as a salt.

Each compound was assayed on humanem Citrat-Plasma (assay: aPTT time prolongation in plasma (Biomatic B10 coagulometer)). Details: effective substance concentration, from a dose-response curve, at which the aPTT time is doubled versus control; human citrate plasma, 37°C.
Assay type: biochemical
With `Cn1c(CNc2ccc(C(=N)N)cc2)nc2cc(C3(C(=NOCC(=O)O)c4ccccn4)CC3)ccc21` (mixture of isomers) [B, (E/Z)-2-(4-Amidinophenylaminomethyl)-1-methyl-5-[1-[(pyridin-2-yl)-(carboxymethyloxyimino)methylen]cyclopropyl]-benzimidazol-hydrochlorid] the “aPTT-Zeit (ED200 in µM)” value was 0.42 µM.
In the case of `Cl.Cn1c(CNc2ccc(C(=N)N)cc2)nc2cc(C3(C(=O)N4CCCC4)CC3)ccc21` [A, 2-(4-Amidinophenylaminomethyl)-1-methyl-5-[1-(pyrrolidin-1-yl-carbonyl)cyclopropyl]-benzimidazol-hydrochlorid], the “aPTT-Zeit (ED200 in µM)” value is reported as 0.12 µM.
In the case of `Cl.Cn1c(CNc2ccc(C(=N)N)cc2)nc2cc(C(C)(NCCC(=O)O)C(=O)N3CCCC3)ccc21` (stereo not shown) [C, 2-(4-Amidinophenylaminomethyl)-1-methyl-5-[1-(2-carboxyethylamino)-1-(pyrrolidin-1-yl-carbonyl)-ethyl]-benzimidazol-hydrochlorid], the “aPTT-Zeit (ED200 in µM)” value is reported as 0.31 µM.
With `Cl.Cn1c(CNc2ccc(C(=N)N)cc2)nc2cc(C3(C(=O)N4CCCC4CCC(=O)O)CC3)ccc21` (stereo not shown) [D, 2-(4-Amidinophenylaminomethyl)-1-methyl-5-[1-[2-(2-carboxyethyl)-pyrrolidin-1-yl-carbonyl]cyclopropyl]-benzimidazol-hydrochlorid] the “aPTT-Zeit (ED200 in µM)” value was 0.29 µM.
`Cc1nc(CCC(=O)O)n(Cc2ccc3c(c2)nc(CNc2ccc(C(=N)N)cc2)n3C)c1C.Cl` [E, 2-(4-Amidinophenylaminomethyl)-1-methyl-5-[2-(2-carboxyethyl)-4,5-dimethyl-imidazol-1-yl-methyl]-benzimidazol-hydrochlorid] was tested, and the “aPTT-Zeit (ED200 in µM)” value was 0.29 µM.
In the case of `Cl.Cn1c(CNc2ccc(C(=N)N)cc2)nc2cc(C(C)(NCC(=O)O)C(=O)N3CCCC3)ccc21` (stereo not shown) [F, 2-(4-Amidinophenylaminomethyl)-1-methyl-5-[1-(carboxymethylamino)-1-(pyrrolidin-1-yl-carbonyl)-ethyl]-benzimidazol-hydrochlorid], the “aPTT-Zeit (ED200 in µM)” value is reported as 0.20 µM.
`CN(CC(C)(C(=O)N1CCCC1)c1ccc2c(c1)nc(CNc1ccc(C(=N)N)cc1)n2C)C(=O)CC(=O)O` (stereo not shown) [G, 2-(4-Amidinophenylaminomethyl)-1-methyl-5-[1-(N-methylcarboxymethylcarbonylaminomethyl)-1-methyl-1-(pyrrolidin-1-yl-carbonyl)-ethyl]-benzimidazol-dihydrochlorid] was tested, and the “aPTT-Zeit (ED200 in µM)” value was 0.17 µM.
